From ChEMBL document CHEMBL1201862, “PubChem BioAssay data set” (2004)
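Grown in 96-well plates, cells were treated for 48 hours with each compound at five concentrations. Insufficient inhibition: endpoint recorded as highest concentration tested. GI50 is the concentration that inhibits growth by half.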 Activity calls are given as the source filed them. Cut-off read from the data, not from the text of the source: active = GI50 up to about 1.1 µM and inactive = higher.

Tests used:
Test in all cases: growth of human tumour cells (NCI), 48 h
[1] = system: SN12C
[2] = system: IGROV-1
[3] = system: CAKI-1
[4] = system: 786-0
[5] = system: MOLT-4
[6] = system: HCT-15
[7] = system: KM12
[8] = system: RXF 393
[9] = system: UACC-62
[10] = system: KM-20L2
[11] = system: SNB-78
[12] = system: SK-OV-3
[13] = system: A498
[14] = system: LXFL 529
[15] = system: ACHN
[16] = system: SF-268
[17] = system: HL-60
[18] = system: SNB-75
[19] = system: K562
[20] = system: NCI-H522
[21] = system: SK-MEL-5
[22] = system: COLO 205
[23] = system: HCT-116
[24] = system: HCC 2998
[25] = system: M19-MEL
[26] = system: SNB-19
[27] = system: OVCAR-8
[28] = system: TK-10
[29] = system: SW-620
[30] = system: A549
[31] = system: NCI-H226
[32] = system: M14
[33] = system: U-251
[34] = system: HOP-18
[35] = system: DMS-273
[36] = system: HOP-62
[37] = system: RXF 631
[38] = system: RPMI-8226
[39] = system: NCI-H460
[40] = system: DMS-114
[41] = system: OVCAR-3
[42] = system: DLD-1
[43] = system: UACC-257
[44] = system: UO-31
[45] = system: SR
[46] = system: OVCAR-4
[47] = system: CCRF-CEM
[48] = system: SF-539
[49] = system: SK-MEL-2
[50] = system: SK-MEL-28
[51] = system: Malme-3M
[52] = system: HOP-92
[53] = system: SF-295
[54] = system: NCI-H23
[55] = system: OVCAR-5
[56] = system: XF498
[57] = system: HT-29
[58] = system: LOX IMVI
[59] = system: EKVX
[60] = system: Hs-578T
[61] = system: BT-549
[62] = system: PC-3
[63] = system: MCF7
[64] = system: T47D
[65] = system: MDA-MB-231
[66] = system: MDA-MB-435
[67] = system: MDA-N
[68] = system: DU-145

Measured: GI50

COC(=O)CC1CCN(C#N)CC1CC[N+](=O)[O-] (centres undefined)
> 100 µM: [6]
inactive: [1] > 100 µM | [2] > 100 µM | [3] > 100 µM | [4] > 100 µM | [5] > 100 µM | [7] > 100 µM | [8] > 100 µM | [9] > 100 µM | [10] > 100 µM | [11] > 100 µM | [12] > 100 µM | [13] > 100 µM | [14] > 100 µM | [15] > 100 µM | [16] > 100 µM | [17] > 100 µM | [18] > 100 µM | [19] > 100 µM | [20] > 100 µM | [21] > 100 µM | [22] > 100 µM | [23] > 100 µM | [24] > 100 µM | [25] > 100 µM | [26] > 100 µM | [27] > 100 µM | [28] > 100 µM | [29] > 100 µM | [30] > 100 µM | [31] > 100 µM | [32] > 100 µM | [33] > 100 µM | [34] > 100 µM | [35] > 100 µM | [36] > 100 µM | [37] > 100 µM | [38] > 100 µM | [39] > 100 µM | [40] > 100 µM | [41] > 100 µM | [42] > 100 µM | [43] > 100 µM | [44] > 100 µM | [45] > 100 µM | [46] > 100 µM | [47] > 100 µM | [48] > 100 µM | [49] > 100 µM | [50] > 100 µM | [51] > 100 µM

COc1ccc(C(c2c(O)c3ccccc3n(C)c2=O)c2c(O)c3ccccc3n(C)c2=O)cc1
inactive: [1] 66.5 µM | [2] 71.8 µM | [3] 38.2 µM | [4] 28.1 µM | [5] 35.9 µM | [7] 22.4 µM | [8] 73.3 µM | [9] 13.2 µM | [10] 21.3 µM | [52] 22.6 µM | [53] 36.5 µM | [11] 7.16 µM | [12] 58.3 µM | [14] 46.1 µM | [15] 46.5 µM | [16] 34.1 µM | [54] 24.5 µM | [17] 31.6 µM | [18] 16.1 µM | [19] 27.9 µM | [20] 9.77 µM | [21] 20.2 µM | [22] 57.3 µM | [23] 36 µM | [24] 40.2 µM | [25] 98.4 µM | [55] 32.3 µM | [26] 39.5 µM | [27] 81.1 µM | [28] 38.2 µM | [29] 57.4 µM | [30] 37.5 µM | [31] 24.5 µM | [32] 34.9 µM | [56] 99.8 µM | [33] 19.1 µM | [34] 35.7 µM | [35] 31.2 µM | [37] 21.3 µM | [38] 46 µM | [39] > 100 µM | [57] 24.3 µM | [40] 63.1 µM | [41] 33 µM | [42] 37.5 µM | [43] 19.5 µM | [44] 36.5 µM | [45] 51.4 µM | [46] 62.8 µM | [58] 37.2 µM | [59] 34.8 µM | [48] 24.5 µM | [49] > 100 µM | [50] 39.2 µM | [51] 47.2 µM
> 10 µM: [6]

C=C(CN(C)C)C(=O)c1ccc(OC2OC(COC(C)=O)C(OC(C)=O)C(OC(C)=O)C2OC(C)=O)cc1 (centres undefined)
3.03 µM: [6]
active: [5] 0.54 µM | [52] 0.581 µM | [17] 0.456 µM | [19] 0.533 µM | [20] 0.447 µM | [22] 0.753 µM | [29] 0.678 µM | [42] 0.912 µM | [45] 0.975 µM | [47] 0.185 µM
inactive: [1] 9.98 µM | [2] 13.4 µM | [3] 1.59 µM | [4] 2.24 µM | [7] 17.6 µM | [8] 1.76 µM | [60] 19.7 µM | [9] 4.7 µM | [10] 17.4 µM | [61] 2.61 µM | [53] 21.3 µM | [11] 8.93 µM | [12] 19.4 µM | [13] 14.1 µM | [14] 1.52 µM | [15] 1.62 µM | [16] 19.7 µM | [54] 8.89 µM | [18] 11.4 µM | [21] 6.37 µM | [23] 2.25 µM | [24] 18.1 µM | [55] 16.5 µM | [26] 19.8 µM | [27] 4.21 µM | [28] 3.39 µM | [30] 21.2 µM | [62] 15.3 µM | [31] 7.36 µM | [32] 2.4 µM | [56] 1.69 µM | [33] 15.8 µM | [34] 3.54 µM | [63] 1.77 µM | [35] 6.85 µM | [64] 2.9 µM | [36] 15.3 µM | [37] 14.3 µM | [38] 2.88 µM | [39] 20.1 µM | [57] 2.75 µM | [40] 5.9 µM | [65] 5 µM | [41] 2.25 µM | [66] 6.18 µM | [43] 2.34 µM | [44] 2.34 µM | [67] 3.03 µM | [46] 3.75 µM | [58] 3.35 µM | [59] 11.8 µM | [48] 10.1 µM | [49] 10.3 µM | [50] 2.52 µM | [68] 17.5 µM | [51] 1.96 µM

Oc1ccccc1/C=N/Cc1ccco1
inactive: [1] > 100 µM | [2] > 100 µM | [4] > 100 µM | [5] > 100 µM | [7] > 100 µM | [8] > 100 µM | [9] > 100 µM | [10] > 100 µM | [53] > 100 µM | [11] > 100 µM | [12] > 100 µM | [13] > 100 µM | [14] > 100 µM | [15] > 100 µM | [16] > 100 µM | [54] > 100 µM | [17] > 100 µM | [18] > 100 µM | [19] > 100 µM | [23] > 100 µM | [25] > 100 µM | [55] > 100 µM | [26] > 100 µM | [27] > 100 µM | [28] > 100 µM | [29] > 100 µM | [30] > 100 µM | [31] > 100 µM | [32] > 100 µM | [56] > 100 µM | [33] > 100 µM | [34] > 100 µM | [36] > 100 µM | [37] > 100 µM | [38] > 100 µM | [39] > 100 µM | [57] > 100 µM | [40] > 100 µM | [41] > 100 µM | [42] > 100 µM | [43] > 100 µM | [44] > 100 µM | [45] > 100 µM | [46] > 100 µM | [58] > 100 µM | [47] > 100 µM | [59] > 100 µM | [48] > 100 µM | [50] > 100 µM | [51] > 100 µM

CC1=C2CC[C@@]3(C)C(=CCC3O)C2(C)CCC1=O (some centres undefined)
> 100 µM: [6]
inactive: [1] > 100 µM | [2] > 100 µM | [3] > 100 µM | [4] > 100 µM | [5] > 100 µM | [7] > 100 µM | [8] > 100 µM | [9] 56.4 µM | [10] > 100 µM | [52] > 100 µM | [53] > 100 µM | [11] > 100 µM | [12] > 100 µM | [13] 91.6 µM | [14] > 100 µM | [15] > 100 µM | [16] > 100 µM | [17] > 100 µM | [18] 83 µM | [20] > 100 µM | [21] > 100 µM | [22] > 100 µM | [23] > 100 µM | [24] > 100 µM | [25] > 100 µM | [55] > 100 µM | [26] > 100 µM | [27] > 100 µM | [28] > 100 µM | [29] > 100 µM | [30] > 100 µM | [31] > 100 µM | [32] > 100 µM | [33] > 100 µM | [34] > 100 µM | [35] > 100 µM | [36] > 100 µM | [37] > 100 µM | [38] > 100 µM | [39] > 100 µM | [57] > 100 µM | [40] > 100 µM | [41] > 100 µM | [42] > 100 µM | [43] > 100 µM | [44] > 100 µM | [45] > 100 µM | [46] > 100 µM | [58] > 100 µM | [47] > 100 µM | [59] 27.1 µM | [48] > 100 µM | [50] > 100 µM | [51] > 100 µM
